Source: PubChem BioAssay (NCI)
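Cultured in 96-well plates, cells were exposed to test compound for 48 hours across five concentrations. TGI denotes the concentration required for complete inhibition of growth.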

What was measured:
Assay in all cases: inhibition of tumour cell growth, NCI panel, 48 h
[1] = test system: LOX IMVI melanoma
[2] = test system: SK-OV-3 ovarian
[3] = test system: HL-60(TB) leukemia
[4] = test system: MCF7 breast
[5] = test system: BT-549 breast
[6] = test system: K-562 leukemia
[7] = test system: UACC-257 melanoma
[8] = test system: ACHN renal
[9] = test system: OVCAR-4 ovarian
[10] = test system: NCI-H522 lung
[11] = test system: KM12 colon
[12] = test system: SK-MEL-28 melanoma
[13] = test system: CAKI-1 renal
[14] = test system: SK-MEL-5 melanoma
[15] = test system: MDA-MB-231 breast
[16] = test system: DU-145 prostate
[17] = test system: RXF 393 renal
[18] = test system: HCC-2998 colon
[19] = test system: HCT-116 colon
[20] = test system: T-47D breast
[21] = test system: NCI-H460 lung
[22] = test system: IGROV1 ovarian
[23] = test system: SNB-75 CNS
[24] = test system: OVCAR-5 ovarian
[25] = test system: SF-268 CNS
[26] = test system: OVCAR-8 ovarian
[27] = test system: EKVX NSCLC
[28] = test system: SR leukemia
[29] = test system: UACC-62 melanoma
[30] = test system: HT29 colon
[31] = test system: MDA-N
[32] = test system: SK-MEL-2 melanoma
[33] = test system: U251 CNS
[34] = test system: HS 578T breast
[35] = test system: RPMI-8226 leukemia
[36] = test system: A498 renal
[37] = test system: SW-620 colon
[38] = test system: SF-295 CNS
[39] = test system: 786-0 renal
[40] = test system: HOP-92 NSCLC
[41] = test system: SN12C renal
[42] = test system: NCI-H23 lung
[43] = test system: OVCAR-3 ovarian
[44] = test system: UO-31 renal
[45] = test system: MALME-3M melanoma
[46] = test system: HOP-62 NSCLC
[47] = test system: MDA-MB-435
[48] = test system: A549 NSCLC
[49] = test system: CCRF-CEM leukemia
[50] = test system: SNB-19 CNS
[51] = test system: NCI/ADR-RES ovarian
[52] = test system: HCT-15 colon
[53] = test system: TK-10 renal
[54] = test system: M14 melanoma
[55] = test system: COLO 205 colon
[56] = test system: MOLT-4 leukemia
[57] = test system: SF-539 CNS
[58] = test system: NCI-H226 lung

O=P(O)(O)OC1OC(CO)C(O)C(O)C1O (stereo not given)
TGI [1]: > 100 µM
TGI [2]: > 100 µM
TGI [3]: > 100 µM
TGI [4]: > 100 µM
TGI [5]: > 100 µM
TGI [6]: > 100 µM
TGI [7]: > 100 µM
TGI [8]: > 100 µM
TGI [9]: > 100 µM
TGI [10]: > 100 µM
TGI [11]: > 100 µM
TGI [12]: > 100 µM
TGI [13]: > 100 µM
TGI [14]: > 100 µM
TGI [15]: > 100 µM
TGI [16]: > 100 µM
TGI [17]: > 100 µM
TGI [18]: > 100 µM
TGI [19]: > 100 µM
TGI [20]: > 100 µM
TGI [21]: > 100 µM
TGI [22]: > 100 µM
TGI [23]: > 100 µM
TGI [24]: > 100 µM
TGI [25]: > 100 µM
TGI [26]: > 100 µM
TGI [27]: > 100 µM
TGI [28]: > 100 µM
TGI [29]: > 100 µM
TGI [30]: > 100 µM
TGI [31]: > 100 µM
TGI [32]: > 100 µM
TGI [33]: > 100 µM
TGI [34]: > 100 µM
TGI [35]: > 100 µM
TGI [36]: > 100 µM
TGI [37]: > 100 µM
TGI [38]: > 100 µM
TGI [39]: > 100 µM
TGI [40]: > 100 µM
TGI [41]: > 100 µM
TGI [42]: > 100 µM
TGI [43]: > 100 µM
TGI [44]: > 100 µM
TGI [45]: > 100 µM
TGI [46]: > 100 µM
TGI [47]: > 100 µM
TGI [48]: > 100 µM
TGI [49]: > 100 µM
TGI [50]: > 100 µM
TGI [51]: > 100 µM
TGI [52]: > 100 µM
TGI [53]: > 100 µM
TGI [54]: > 100 µM

CCOC(=O)c1nc2ccccc2nc1Nc1ccc(Cl)c(Cl)c1
TGI [2]: 47.1 µM
TGI [3]: > 100 µM
TGI [4]: > 100 µM
TGI [55]: > 100 µM
TGI [5]: 49.5 µM
TGI [6]: > 100 µM
TGI [8]: > 100 µM
TGI [9]: > 100 µM
TGI [56]: > 100 µM
TGI [10]: > 100 µM
TGI [11]: > 100 µM
TGI [12]: > 100 µM
TGI [13]: 70.9 µM
TGI [14]: 65.5 µM
TGI [15]: > 100 µM
TGI [16]: > 100 µM
TGI [18]: > 100 µM
TGI [19]: > 100 µM
TGI [20]: > 100 µM
TGI [21]: > 100 µM
TGI [22]: > 100 µM
TGI [23]: 68.4 µM
TGI [24]: > 100 µM
TGI [25]: > 100 µM
TGI [26]: > 100 µM
TGI [27]: > 100 µM
TGI [28]: > 100 µM
TGI [29]: 83.2 µM
TGI [30]: > 100 µM
TGI [31]: > 100 µM
TGI [32]: > 100 µM
TGI [33]: > 100 µM
TGI [34]: > 100 µM
TGI [35]: > 100 µM
TGI [57]: > 100 µM
TGI [39]: > 100 µM
TGI [40]: 44.5 µM
TGI [41]: > 100 µM
TGI [42]: > 100 µM
TGI [43]: > 100 µM
TGI [44]: > 100 µM
TGI [45]: 93.9 µM
TGI [46]: 63 µM
TGI [47]: > 100 µM
TGI [48]: > 100 µM
TGI [50]: > 100 µM
TGI [51]: > 100 µM
TGI [52]: > 100 µM
TGI [53]: > 100 µM
TGI [54]: > 100 µM

O=C(Nc1ccccc1Cl)c1cc(S(=O)(=O)Nc2n[nH]c(=O)n2-c2ccccc2)c(S)cc1Cl
TGI [58]: > 100 µM
TGI [1]: > 100 µM
TGI [2]: > 100 µM
TGI [3]: > 100 µM
TGI [4]: > 100 µM
TGI [55]: > 100 µM
TGI [5]: > 100 µM
TGI [7]: > 100 µM
TGI [9]: > 100 µM
TGI [56]: > 100 µM
TGI [11]: > 100 µM
TGI [12]: > 100 µM
TGI [13]: > 100 µM
TGI [14]: > 100 µM
TGI [15]: > 100 µM
TGI [16]: > 100 µM
TGI [17]: > 100 µM
TGI [18]: > 100 µM
TGI [20]: > 100 µM
TGI [21]: > 100 µM
TGI [22]: > 100 µM
TGI [24]: > 100 µM
TGI [25]: > 100 µM
TGI [26]: > 100 µM
TGI [27]: > 100 µM
TGI [28]: > 100 µM
TGI [29]: > 100 µM
TGI [30]: > 100 µM
TGI [31]: > 100 µM
TGI [32]: > 100 µM
TGI [33]: > 100 µM
TGI [34]: > 100 µM
TGI [35]: > 100 µM
TGI [36]: > 100 µM
TGI [37]: > 100 µM
TGI [57]: > 100 µM
TGI [38]: > 100 µM
TGI [39]: > 100 µM
TGI [40]: > 100 µM
TGI [41]: > 100 µM
TGI [42]: > 100 µM
TGI [43]: > 100 µM
TGI [44]: > 100 µM
TGI [45]: > 100 µM
TGI [46]: > 100 µM
TGI [47]: > 100 µM
TGI [49]: > 100 µM
TGI [50]: > 100 µM
TGI [51]: > 100 µM
TGI [52]: > 100 µM
TGI [54]: > 100 µM
